Measurements taken from PMC4805298, “Activation of Plant Innate Immunity by Extracellular High Mobility Group Box 3 and Its Inhibition by Salicylic Acid” (PLoS Pathogens, 2016).

Legend:
[1] = target: T1, HMGB3 (Arabidopsis thaliana, UniProt P93047); assay: SPR competition on 3AESA chip; competition of 4AzSA photoaffinity crosslinking; format: binding; details: 1 uM HMGB3 in SPR; 50 uM 4AzSA in PBS for crosslinking; competitive
T1 construct: ORF in pET30 Xa/LIC, 6xHis-tagged, E. coli BL21, Ni-NTA and Superdex 200 purified; ABRC ORF clone
T1 sequence (P93047 1-141): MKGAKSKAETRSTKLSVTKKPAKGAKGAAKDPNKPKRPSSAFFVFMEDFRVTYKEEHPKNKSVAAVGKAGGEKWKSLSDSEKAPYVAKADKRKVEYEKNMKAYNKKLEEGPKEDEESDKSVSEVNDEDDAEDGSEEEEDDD

[2] = target: T1, HMGB3; assay: photoaffinity crosslinking, immunoblot with anti-SA antibody; format: binding; details: 50 uM 4AzSA, PBS, on ice, 254 nm UV 30 mJ; covalent

SMILES | SPR competition on 3AESA chip; competition of 4AzSA photoaffinity crosslinking [1] | photoaffinity crosslinking, immunoblot with anti-SA antibody [2]
O=C(O)c1ccccc1O [SA, salicylic acid] | this binding was competed in the presence of increasing concentrations of SA | 
[N-]=[N+]=Nc1ccc(C(=O)O)c(O)c1 [4AzSA, 4-azido SA] |  | HMGB3 was effectively crosslinked to 4AzSA by UV irradiation
